# Patent publication US11293927B2, “Screening methods for PARP modulators” (Ribon Therapeutics, Inc., priority 2018, dated 2022)
# How the values were obtained:
# PARP14 [1] = target: T1, PARP14 (Homo sapiens, UniProt Q460N5); assay: In vitro TR-FRET probe displacement assay (Probe C), PARP14; assay type: binding; parameters: made in house; host or cells: E. coli; settings: TR-FRET displacement of Probe C, PARP14 residues 1611-1801
# T1 sequence (Q460N5 1611-1801): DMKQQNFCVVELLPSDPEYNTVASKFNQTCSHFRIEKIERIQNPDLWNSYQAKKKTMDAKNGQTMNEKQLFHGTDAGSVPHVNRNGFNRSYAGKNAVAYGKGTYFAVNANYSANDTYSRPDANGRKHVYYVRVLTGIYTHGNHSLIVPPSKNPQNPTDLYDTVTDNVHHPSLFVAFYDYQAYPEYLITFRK
# Description: A portion of PARP14 (residues 1611 to 1801 of NP_060024.2 (SEQ ID NO: 4), GenBank Accession No. NM_017554) was overexpressed in E. coli cells. An N-terminal fusion tag, […] (SEQ ID NO: 9), was used to purify the protein from cell lysates. The fusion tag was left on the protein for use in the probe displacement assay.
# Displacement of a Probe C binding to monoPARP active sites was measured using a time-resolved fluorescence resonance energy transfer (TR-FRET) assay. 20 nL of a dose response curve of each test compound was spotted in black 384-well polystyrene proxiplates (Perkin Elmer) using a Mosquito (TTP Labtech). Reactions were performed in an 8 μL volume by adding 6 μL of the monoPARP and Probe C in assay buffer (20 mM HEPES pH=8, 100 mM NaCl, 0.1% bovine serum albumin, 2 mM DTT and 0.002% Tween20), incubating with test compound at 25° C. for 30 min, then adding 2 μL of ULight-anti 6×His and LANCE Eu-W 1024 labeled streptavidin (Perkin Elmer). Binding reactions were equilibrated at 25° C. for an additional 30 min, then read on an Envision platereader equipped with a LANCE/DELFIA top mirror (Perkin Elmer) using excitation of 320 nm and emission of 615 nm and […] with a 90 μs delay. The ratio of the 665/615 nm emission were calculated for each well to determine the amount of complex of monoPARP and Probe C in each well. […]
# PARP14 [2] = target: T1, PARP14; assay: NanoBRET probe displacement assay (Probe A) in live 293T cells, PARP14; assay type: cell-based; settings: NanoBRET displacement of Probe A, NanoLuc-tagged PARP14 in live 293T cells
# Description: MonoPARP genes from Table 5 were cloned into the pcDNA3.1-mammalian expression vector as a NanoLuc fusion with NanoLuc on the N- or C-terminus as indicated. The sequence of the NanoLuc tag is as follows: [table] Displacement of a fluorescently-labeled compound Probe A binding to NanoLuc-tagged monoPARP enzymes was measured in live cells using a bioluminescence resonance energy transfer (NanoBRET) assay. TIPARP, PARP10, PARP12 or PARP14 fused to a NanoLuc tag were overexpressed in 293T cells (ATCC) using the plasmids described herein. Plasmid DNA and empty vector DNA were added to phenol red free OptiMEM (Thermo Fisher) as shown in Table 6 in a total volume of 2.456 mL. 157 μL of Fugene HD (Promega) was added to the DNA mixture and allowed to incubate 5 min at 25° C. [table] Next, 2.375 mL of the plasmid-Fugene mixture were added to 20 million 293T cells in DMEM (Thermo Fisher) supplemented with 10% FBS (VWR). The transfection was incubated for 24 h at 37° C. in an incubator containing air supplemented with 5% CO2. The cells were resuspended in phenol red free OptiMEM media. 40 μL of cells were then added to white polystyrene 384-well non-binding surface microplate (Corning). […] Filtered luminescence was measured on an Envision (Perkin Elmer) equipped with a dual 585 nm mirror, 460±40 nm bandpass filter (donor) and 610±50 nm longpass filter (acceptor). […]
smiles,measurement,setting,value
"O=c1[nH]ncc(N2Cc3ccc(OC4CCNCC4)cc3C2)c1C(F)(F)F [Compound A, 5-[5-(Piperidin-4-yloxy)-2,3-dihydro-1H-isoindol-2-yl]-4-(trifluoromethyl)-2,3-dihydropyridazin-3-one]",IC50,PARP14 [1],50 nM
same,IC50,PARP14 [2],30 nM
